Assays:
Brd4 BD1 = Brd4 BD1 (Homo sapiens (Human), UniProt O60885); test: HTRF evaluation of bromodomain inhibitors, Brd4 BD1; format: binding; conditions: H4ac4 peptide 50 nM, 4 h at 4° C.
Method: (§1) HTRF reagents and buffers were purchased from Cisbio Bioassays. The assay used a terbium (Ill) cryptate donor reagent conjugated to an anti-GST antibody (MAb anti-GST-Tb; GSTTLA), a streptavidin-conjugated acceptor reagent (streptavidin-d2) and Cisbio proprietary buffers (EPlgeneous Binding Domain Diluent and Detection buffer, respectively). GST-tagged bromodomains (BDs) were expressed in E. coli and purified using standard procedures. Incubation of GST-tagged BDs with biotinylated acetylated H4 peptide (H4K5acK8acK12acK16ac, here named H4ac4) brings the donor and acceptor into close proximity and allows for a FRET reaction. GST-tagged proteins in 25 mM Hepes pH 7.5, 150 mM NaCl, 0.5 mM DTT were assayed at a final concentration of 5 nM. Biotinylated H4ac4 peptides were used at a final concentration of 50, 600 nM in assays involving Brd4 BD1, Brd4 BD2, respectively. The antibody-conjugated donor was used at 0.5 nM and the streptavidin-conjugated acceptor was used at ⅛ of the H4ac4 peptide concentration. Inhibitors were tested by performing an eleven-point dilution series with a maximal final concentration of […]. These concentrations allowed a fixed DMSO concentration at 0.2%, critical for a Z′ factor ≥0.8. Components were incubated at 4° C. for 4 h (BD1) or for 24 h (BD2). Experiments were performed in 384-well white plates (Greiner ref. 781080) and analyzed in a ClarioStar plate reader (BMG LABTECH, excitation at 330 nm and emission at 620 and 665 nm, corresponding to the donor and acceptor emission peaks, respectively; the 665/620 ratio is used to calculate the specific HTRF signal) with an integration delay of 60 μs and an integration time of 400 μs.

Brd4 BD2 = Brd4 BD2 (Homo sapiens (Human), UniProt O60885); test: HTRF evaluation of bromodomain inhibitors, Brd4 BD2; format: binding; conditions: for IC50: HTRF, H4ac4 peptide 600 nM, 24 h at 4° C.; for Selectivity BD2/BD1: ratio of the BD1 and BD2 IC50
Method: as §1

Compound	IC50 (Brd4 BD1)	IC50 (Brd4 BD2)	Selectivity BD2/BD1 (Brd4 BD2)
CC[C@H]1[C@@H](C)C(n2cc(COCCOCc3cn(C4c5cc(C(=O)OC)ccc5N(C(C)=O)[C@@H](CC)[C@H]4C)nn3)nn2)c2cc(C(=O)OC)ccc2N1C(C)=O (stereo partly drawn) [XU, Dimethyl-4,4′-(((ethane-1,2-diylbis(oxy))bis(methylene))bis(1H-1,2,3-triazole-4,1-diyl))(2S,2'S,3R,3′R,4S,4'S)-bis(1-acetyl-2-ethyl-3-methyl-1,2,3,4-tetrahydroquinoline-6-carboxylate)]	247 nM	57 nM	4.3
CC[C@H]1[C@@H](C)[C@H](n2cc(COCCOCCOCc3cn(C4c5cc(C(=O)OC)ccc5N(C(C)=O)[C@@H](CC)[C@H]4C)nn3)nn2)c2cc(C(=O)OC)ccc2N1C(C)=O (stereo partly drawn) [XV, Dimethyl-4,4′-((((oxybis(ethane-2,1-diyl))bis(oxy))bis(methylene))bis(1H-1,2,3-triazole-4,1-diyl))(2S,2'S,3R,3′R,4S,4'S)-bis(1-acetyl-2-ethyl-3-methyl-1,2,3,4-tetrahydroquinoline-6-carboxylate)]	1670 nM	2430 nM	0.7
CC[C@H]1[C@@H](C)[C@H](n2cc(COCCOCCOCCOCc3cn(C4c5cc(C(=O)OC)ccc5N(C(C)=O)[C@@H](CC)[C@H]4C)nn3)nn2)c2cc(C(=O)OC)ccc2N1C(C)=O (stereo partly drawn) [XW, Dimethyl-4,4′-((2,5,8,11-tetraoxadodecane-1,12-diyl)bis(1H-1,2,3-triazole-4,1-diyl))(2S,2′S,3R,3′R,4S,4′S)-bis(1-acetyl-2-ethyl-3-methyl-1,2,3,4-tetrahydroquinoline-6-carboxylate)]	1850 nM	95.4 nM	19.4
CC[C@H]1[C@@H](C)[C@H](n2cc(COCCOCCOCCOCCOCc3cn(C4c5cc(C(=O)OC)ccc5N(C(C)=O)[C@@H](CC)[C@H]4C)nn3)nn2)c2cc(C(=O)OC)ccc2N1C(C)=O (stereo partly drawn) [XX, Dimethyl-4,4′-((2,5,8,11,14-pentaoxapentadecane-1,15-diyl)bis(1H-1,2,3-triazole-4,1-diyl))(2S,2'S,3R,3′R,4S,4'S)-bis(1-acetyl-2-ethyl-3-methyl-1,2,3,4-tetrahydroquinoline-6-carboxylate)]	1470 nM	129 nM	11.5
CC[C@H]1[C@@H](C)C(n2cc(COCCOCCOCCOCCOCCOCc3cn(C4c5cc(C(=O)OC)ccc5N(C(C)=O)[C@@H](CC)[C@H]4C)nn3)nn2)c2cc(C(=O)OC)ccc2N1C(C)=O (stereo partly drawn) [XY, Dimethyl-4,4′-((2,5,8,11,14,17-hexaoxaoctadecane-1,18-diyl)bis(1H-1,2,3-triazole-4,1-diyl))(2S,2'S,3R,3′R,4S,4'S)-bis(1-acetyl-2-ethyl-3-methyl-1,2,3,4-tetrahydroquinoline-6-carboxylate)]	1560 nM	95 nM	16.4
CC[C@H]1[C@@H](C)[C@H](N=[N+]=[N-])c2cc(C(F)(F)F)ccc2N1C(C)=O [YB, 1-((2S,3R,4S)-4-azido-2-ethyl-3-methyl-6-(trifluoromethyl)-3,4-dihydroquinolin-1(2H)-yl)ethan-1-one]	67000 nM	7570 nM	8.8
CCCCCc1cn([C@@H]2c3cc(C(F)(F)F)ccc3N(C(C)=O)[C@@H](CC)[C@H]2C)nn1 [YD, 1-((2S,3R,4S)-2-ethyl-3-methyl-4-(4-pentyl-1H-1,2,3-triazol-1-yl)-6-(trifluoromethyl)-3,4-dihydroquinolin-1(2H)-yl)ethan-1-one]	41800 nM	5710 nM	7.3
CC[C@H]1[C@@H](C)[C@H](n2cc(COCCOCC#Cc3cccc4c3CN(C3CCC(=O)NC3=O)C4=O)nn2)c2cc(C(=O)OC)ccc2N1C(C)=O (stereo partly drawn) [YE, Methyl-(2S,3R,4S)-1-acetyl-4-(4-((2-((3-(2-(2,6-dioxopiperidin-3-yl)-1-oxoisoindolin-4-yl)prop-2-yn-1-yl)oxy)ethoxy)methyl)-1H-1,2,3-triazol-1-yl)-2-ethyl-3-methyl-1,2,3,4-tetrahydroquinoline-6-carboxylate]	7870 nM	486 nM	16.2
